Data on 1 molecule can be found in PMC9203742 (Nature Communications, 2022).

The structures appear in SMILES notation. Several values for one entry are separate records, joined by “and”; a condition that tells them apart may be missing. Equal entries are not always repeated.

For one assay, the target named is T1, WT mGlu1 (Rattus norvegicus, UniProt P23385). Note: test concentration or dose not given here.
T1 construct: expressed in transfected cells; host or cells: HEK293
In kind it is cell-based.

The target of the next assay is T2, mGlu1 P58H/N264H mutant (Rattus norvegicus, UniProt P23385, N264H/P58H).
T2 construct: expressed in transfected cells; host or cells: HEK293
T2 sequence (P23385 19-1199 P58H/N264H): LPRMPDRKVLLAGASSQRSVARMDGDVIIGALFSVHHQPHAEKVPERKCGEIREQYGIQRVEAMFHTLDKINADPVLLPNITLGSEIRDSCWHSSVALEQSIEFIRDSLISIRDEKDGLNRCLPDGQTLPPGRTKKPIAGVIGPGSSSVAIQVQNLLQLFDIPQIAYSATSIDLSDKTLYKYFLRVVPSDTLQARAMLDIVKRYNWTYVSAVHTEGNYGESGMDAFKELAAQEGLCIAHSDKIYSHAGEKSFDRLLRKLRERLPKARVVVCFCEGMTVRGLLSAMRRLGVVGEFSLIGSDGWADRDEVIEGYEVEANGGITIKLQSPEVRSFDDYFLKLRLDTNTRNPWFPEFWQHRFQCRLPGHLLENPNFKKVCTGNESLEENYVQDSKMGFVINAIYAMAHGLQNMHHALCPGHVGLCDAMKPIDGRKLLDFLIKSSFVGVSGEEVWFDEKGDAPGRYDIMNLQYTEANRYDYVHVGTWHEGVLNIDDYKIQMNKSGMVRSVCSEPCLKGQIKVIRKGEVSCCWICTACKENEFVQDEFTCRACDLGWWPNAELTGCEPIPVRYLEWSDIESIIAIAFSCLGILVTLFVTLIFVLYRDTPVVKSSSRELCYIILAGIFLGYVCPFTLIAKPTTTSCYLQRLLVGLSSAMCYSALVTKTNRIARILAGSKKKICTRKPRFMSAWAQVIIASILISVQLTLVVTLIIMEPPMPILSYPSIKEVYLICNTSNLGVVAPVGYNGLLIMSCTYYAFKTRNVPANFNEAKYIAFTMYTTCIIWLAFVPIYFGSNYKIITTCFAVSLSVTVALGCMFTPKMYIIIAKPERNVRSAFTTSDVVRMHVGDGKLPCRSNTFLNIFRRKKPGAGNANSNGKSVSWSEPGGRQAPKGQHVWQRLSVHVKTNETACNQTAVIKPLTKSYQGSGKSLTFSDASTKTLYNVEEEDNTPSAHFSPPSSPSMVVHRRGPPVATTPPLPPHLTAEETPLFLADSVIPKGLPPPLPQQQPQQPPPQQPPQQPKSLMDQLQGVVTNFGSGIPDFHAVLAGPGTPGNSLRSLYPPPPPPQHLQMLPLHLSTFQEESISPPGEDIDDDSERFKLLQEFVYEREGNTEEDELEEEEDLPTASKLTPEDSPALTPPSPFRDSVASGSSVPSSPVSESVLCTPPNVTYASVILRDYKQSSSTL
Briefly: Fura-2 Ca2+ imaging in HEK293 cells expressing mGlu1 P58H/N264H. In kind it is cell-based.

Another assay addresses T3, mGlu1 A59H/N264H mutant (Rattus norvegicus, UniProt P23385, A59H/N264H).
T3 construct: expressed in transfected cells; host or cells: HEK293
The assay can be described thus: Fura-2 Ca2+ imaging in HEK293 cells expressing mGlu1 A59H/N264H. In kind it is cell-based.

Another assay addresses T4, mGlu1 K61H/N264H mutant (Rattus norvegicus, UniProt P23385, K61H/N264H).
T4 construct: expressed in transfected cells; host or cells: HEK293
The assay can be described thus: Fura-2 Ca2+ imaging in HEK293 cells expressing mGlu1 K61H/N264H. Format: cell-based.

Another assay addresses T5, mGlu1 P57H/N264H mutant (Rattus norvegicus, UniProt P23385, N264H/P57H).
T5 construct: expressed in transfected cells; host or cells: HEK293
Briefly: Fura-2 Ca2+ imaging in HEK293 cells expressing mGlu1 P57H/N264H. In kind it is cell-based.

A further assay deals with T6, mGlu1 E60H/N264H mutant (Rattus norvegicus, UniProt P23385, E60H/N264H).
T6 construct: expressed in transfected cells; host or cells: HEK293
T6 sequence (P23385 19-1199 E60H/N264H): as the sequence (P23385 19-1199 P58H/N264H) above, with H40P, E42H counted along it
The assay can be described thus: Fura-2 Ca2+ imaging in HEK293 cells expressing mGlu1 E60H/N264H. Format: cell-based.

The test system of assay [1] is HEK293 cells, vector control. Briefly: Fura-2 Ca2+ imaging in HEK293 cells transfected with control vector (Vec). Format: cell-based. Particulars: single-cell values #1-#20.
In assay [2] the test system is mGlu1 construct not given. The assay can be described thus: Fura-2 Ca2+ imaging in HEK293 cells, source data Suppl Fig1, left group (c0-c8); construct not given. In kind it is cell-based, rat. The following applies: single-cell values, cells #15-#20; left group of third block. From the text: (§1) Supplement 41467_2022_30828_MOESM6_ESM.zip/Ojima et al_source data_Suppl Fig.xlsx, sheet "Suppl Fig1" | column: Glu; NiCl2; CuCl2; ZnCl2; CdCl2; Na2PdCl2; Pd(bpy)

Assay [3] deals with HEK293 cells, vector control. Briefly: Fura-2 Ca2+ imaging in HEK293 cells transfected with control vector (Vec). In kind it is cell-based. The following applies: Fig.1e. From the text:
Supplement 41467_2022_30828_MOESM6_ESM.zip/Ojima et al_source data_Main Figure.xlsx, sheet "Fig.1e" | column: Vec

Assay [4] concerns the target T7, mGlu1 A59H/A265H mutant (Rattus norvegicus, UniProt P23385, A265H/A59H).
T7 construct: expressed in transfected cells; host or cells: HEK293
Briefly: Fura-2 Ca2+ imaging in HEK293 cells expressing mGlu1 A59H/A265H. In kind it is cell-based. Particulars: single-cell values.

The subject of assay [5] is mGlu1 construct not given. The assay can be described thus: Fura-2 Ca2+ imaging in HEK293 cells, source data Suppl Fig1, middle group (c9-c17); construct not given. Format: cell-based, rat. The following applies: single-cell values, cells #15-#20; middle group of third block.
Text: as §1

For assay [6], the target named is T7, mGlu1 A59H/A265H mutant. Briefly: Fura-2 Ca2+ imaging in HEK293 cells expressing mGlu1 A59H/A265H. In kind it is cell-based. The following applies: Fig.1e.
Assay [7] deals with T8, mGlu1 A59H/G266H mutant (Rattus norvegicus, UniProt P23385, A59H/G266H).
T8 construct: expressed in transfected cells; host or cells: HEK293
T8 sequence (P23385 19-1199 A59H/G266H): as the sequence (P23385 19-1199 P58H/N264H) above, with H40P, A41H, H246N, G248H counted along it
Briefly: Fura-2 Ca2+ imaging in HEK293 cells expressing mGlu1 A59H/G266H. In kind it is cell-based. Particulars: single-cell values.

Assay [8] relates to mGlu1 construct not given. Briefly: Fura-2 Ca2+ imaging in HEK293 cells, source data Suppl Fig1, right group (c18-c26); construct not given. Particulars: single-cell values, cells #15-#20; right group of third block. Format: cell-based, rat.
Text: as §1

Assay [9] deals with T8, mGlu1 A59H/G266H mutant. Briefly: Fura-2 Ca2+ imaging in HEK293 cells expressing mGlu1 A59H/G266H. In kind it is cell-based. The following applies: Fig.1e.
Throughout, for Ca2+ response (delta ratio), A59H/G266H: test concentration or dose not given here.
Throughout, for Ca2+ response of individual cells (source data Suppl Fig1), Vec: test concentration or dose not given here.

T4 sequence (P23385 19-1199 K61H/N264H): as the sequence (P23385 19-1199 P58H/N264H) above, with H40P, K43H counted along it
T5 sequence (P23385 19-1199 P57H/N264H): as the sequence (P23385 19-1199 P58H/N264H) above, with P39H, H40P counted along it
T1 sequence (P23385 19-1199): as the sequence (P23385 19-1199 P58H/N264H) above, with H40P, H246N counted along it
T7 sequence (P23385 19-1199 A59H/A265H): as the sequence (P23385 19-1199 P58H/N264H) above, with H40P, A41H, H246N, A247H counted along it
T3 sequence (P23385 19-1199 A59H/N264H): as the sequence (P23385 19-1199 P58H/N264H) above, with H40P, A41H counted along it

With `[Cl][Cu][Cl]` [CuCl2], on WT mGlu1 (Fig.1e), the “Ca2+ response (delta ratio), WT” value is listed as 0.02902. The “Ca2+ response of individual cells (source data Suppl Fig1), WT” value on WT mGlu1 (single-cell values #1-#20, WT) is 0.02565 and 0.01115 and 0.003838 and 0.01123 and 0.01654 and 0.01648 and -0.004477 and -0.001046 and -0.0009077 and 0.04058 and 0.008923 and 0.1117 and -0.006138 and 0.001246 and 0.02892 and 0.05005 and 0.02387 and -0.0088 and -0.01073 and 0.2624. Further, the “Ca2+ response (delta ratio), P58H/N264H” value at mGlu1 P58H/N264H mutant (Fig.1e) was -0.01421. In addition, on mGlu1 P58H/N264H mutant (single-cell values #1-#20, P58H/N264H), the “Ca2+ response of individual cells (source data Suppl Fig1), P58H/N264H” value is -0.02928 and 0.02135 and -0.1614 and -0.04317 and -0.03766 and -0.009985 and 0.06338 and -0.01091 and -0.1246 and -0.02604 and 0.008315 and -0.1403 and -0.007362 and 0.04025 and -0.04095 and 0.177 and 0.01632 and 0.001515 and 0.03036 and -0.0111. Moreover, the “Ca2+ response (delta ratio), A59H/N264H” value on mGlu1 A59H/N264H mutant (Fig.1e) is given as -0.008971. Also, the “Ca2+ response of individual cells (source data Suppl Fig1), A59H/N264H” value at mGlu1 A59H/N264H mutant (single-cell values #1-#20, A59H/N264H) is 0.01442 and -0.1061 and -0.004715 and -0.004738 and -0.008577 and -0.007731 and 0.0007462 and -0.01637 and -0.006738 and -0.004831 and 0.04273 and 0.05223 and 0.05741 and -0.09539 and -0.006538 and 0.01191 and -0.02261 and -0.005077 and -0.03944 and -0.03002. Moreover, at mGlu1 K61H/N264H mutant (Fig.1e), the “Ca2+ response (delta ratio), K61H/N264H” value was -0.008802. On mGlu1 K61H/N264H mutant (single-cell values, K61H/N264H), the “Ca2+ response of individual cells (source data Suppl Fig1), K61H/N264H” value was -0.02337 and 0.01083 and -0.01322 and 0.006669 and -0.02188 and -0.01248 and -0.01492 and -0.01697 and -0.01238 and 0.05283 and -0.01893 and -0.01583 and -0.01651 and -0.01879. Moreover, the “Ca2+ response (delta ratio), P57H/N264H” value at mGlu1 P57H/N264H mutant (Fig.1e) worked out at 0.007634. At mGlu1 P57H/N264H mutant (single-cell values #1-#20, P57H/N264H), the “Ca2+ response of individual cells (source data Suppl Fig1), P57H/N264H” value was -0.009615 and 0.002477 and 0.01378 and 0.02434 and 0.0008462 and 0.008 and -0.0007 and 0.008062 and 0.01831 and -0.0008538 and 0.01338 and 0.01485 and 0.01 and 0.001692 and -0.005731 and 0.03126 and 0.0103 and 0.01328 and -0.004977 and 0.003977. Also, the “Ca2+ response (delta ratio), E60H/N264H” value at mGlu1 E60H/N264H mutant (Fig.1e) was -0.0006131. In addition, at mGlu1 E60H/N264H mutant (single-cell values #1-#20, E60H/N264H), the “Ca2+ response of individual cells (source data Suppl Fig1), E60H/N264H” value is 0.001946 and 0.001985 and -0.004585 and 0.05012 and -0.01047 and -0.007438 and -0.008146 and -0.01882 and 0.02938 and -0.02675 and -0.0009231 and -0.009708 and 0.06405 and 0.006685 and -0.01392 and -0.007992 and -0.007615 and -0.01812 and -0.013 and -0.01895. Besides, the “Ca2+ response of individual cells (source data Suppl Fig1), Vec” value in [1] is 0.02461 and -0.003092 and 0.01753 and 0.02088 and 0.01475 and -0.003385 and 0.07142 and 0.01504 and 0.02807 and 0.04525 and 0.001746 and 0.01458 and 0.01948 and -0.006131 and 0.04009 and 0.01931 and 0.02889 and 0.01229 and -0.005492 and -0.004385. Besides, the “Ca2+ response of individual cells (source data, sheet Suppl Fig1)” value in assay [2] was 0.006485 and -0.01132 and -0.01643 and -0.02029 and -0.01602 and -0.0035; in assay [5], -0.002923 and 0.002562 and 0.004815 and -0.0036 and -0.004154 and 0.002577; in [8] it was -0.007831 and 0.008223 and -0.0022 and 0.006269 and -0.002515 and 0.01038. Moreover, the “Ca2+ response (delta ratio), Vec” value in [3] came out at 0.01757. In addition, the “Ca2+ response of individual cells (source data Suppl Fig1), A59H/A265H” value on mGlu1 A59H/A265H mutant [4] was -0.01552 and 0.009746 and -0.01265 and -0.0065 and 0.009708 and -0.002746 and 0.009762 and -0.01072 and 0.004462 and -0.01463 and 0.01478 and 0.0025 and 0.01092 and -0.009138. At mGlu1 A59H/A265H mutant [6], the “Ca2+ response (delta ratio), A59H/A265H” value is -0.0005365. The “Ca2+ response of individual cells (source data Suppl Fig1), A59H/G266H” value on mGlu1 A59H/G266H mutant [7] is -0.005931 and -0.06262 and 0.006338 and -0.05078 and -0.003546 and -0.0521 and 0.002277 and -0.02358 and 0.04298 and -0.0436 and -0.1049 and -0.001831 and 0.0158 and -0.01046. Besides, the “Ca2+ response (delta ratio), A59H/G266H” value on mGlu1 A59H/G266H mutant [9] was -0.01398.
